According to patent publication EP0640600A1, “Heterocyclylbenzoheterocycles” (BAYER AG, priority 1993, dated 1995):

Legend:
Unkräuter = assay: Post-emergence test, herbicidal action on weeds; format: in vivo; details: test plants 5 - 15 cm high sprayed, damage rated after three weeks vs untreated control, application rate not given
Excerpt: (§1) Lösungsmittel: 5 Gewichtsteile Aceton Emulgator: 1 Gewichtsteil Alkylarylpolyglykolether Zur Herstellung einer zweckmäßigen Wirkstoffzubereitung vermischt man 1 Gewichtsteil Wirkstoff mit der angegebenen Menge Lösungsmittel, gibt die angegebene Menge Emulgator zu und verdünnt das Konzentrat mit Wasser auf die gewünschte Konzentration.
(§2) Mit der Wirkstoffzubereitung spritzt man Testpflanzen, welche eine Höhe von 5 - 15 cm haben so, daß die jeweils gewünschten Wirkstoffmengen pro Flächeneinheit ausgebracht werden. Nach drei Wochen wird der Schädigungsgrad der Pflanzen bonitiert in % Schädigung im Vergleich zur Entwicklung der unbehandelten Kontrolle.

[1] = tested on: Kulturpflanzen, wie z.B. Weizen und Soja; details: in vivo
Excerpt: as §1, §2

Verträglichkeit gegenüber Kulturpflanzen, wie z.B. Weizen und Soja [1]: teilweise guter Verträglichkeit
Compound: CCCN1C(=O)COc2cc(F)c(-n3c(=O)nc(OCC)n(C)c3=O)cc21 [Beispiel 2, 3-(7-Fluor-3-oxo-4-propyl-1,4-benzoxazin-6-yl)-6-ethoxy-1-methyl-(1H,3H)-1,3,5-triazin-2,4-dion]
Wirkung gegen Unkräuter (Unkräuter): starke Wirkung
